Melting point data for 39 compounds are collected here from patent US6822097B1, “Compounds and methods of uses” (Amgen, Inc., priority 2002, dated 2004).

Where a name gives a salt, the structure may show the parent alone. Where only a bound is given, the exact number is not on record here.

For the compound `O=c1[nH]c2ccccc2cc1-c1nc(-c2ccncc2)cs1` (as salt: salt) [Example 111, 3-(4-Pyridin-4-yl-thiazol-2-yl)-1H-quinolin-2-one], the melting point was greater than 300 °C. Compound `N#Cc1ccc(-c2csc(-c3cc4ccccc4[nH]c3=O)n2)cc1` [Example 113, 4-[2-(2-Oxo-3-hydroquinolyl)-1,3-thiazol-4-yl]benzenecarbonitrile] registered a melting point greater than 300 °C. For the compound `CCN(CC)C(=O)c1ccc2cc(-c3csc(N(C)S(=O)(=O)c4ccccc4)n3)c(=O)[nH]c2c1` [Example 8767, N,N-Diethyl-3-(2-(methyl(phenylsulfonyl)amino)-1,3-thiazol-4-yl)-2-oxo-1,2-dihydro-7-quinolinecarboxamide], the melting point was in the range of 200 to 202 °C.

`O=c1[nH]c2ccccc2cc1-c1csc(NCCN2CCOCC2)n1` (as salt: hydrobromid) [Example 80, 3-{2-[(2-Morpholin-4-ylethyl)amino]-1,3-thiazol-4-yl}hydroquinolin-2-one hydrobromide] returned a melting point of 237 to 239 °C. With `O=c1[nH]c2ccccc2c(-c2ccccc2)c1-c1csc(-c2ccncc2)n1` [Example 4, 3-[2-(4-Pyridyl)-4-thiazolyl]-4-phenyl-2(1H)-quinolinone], the melting point was greater than 250 °C. `CN(C)CCN(C)C(=O)c1ccc2cc(-c3csc(N(C)S(=O)(=O)c4ccccc4)n3)c(=O)[nH]c2c1` [Example 8788, 3-[2-(Benzenesulfonyl-methyl-amino)-thiazol-4-yl]-2-oxo-1,2-dihydro-quinoline-7-carboxylic acid (2-dimethylamino-ethyl)-methyl-amide]: the melting point was in the range of 144 to 148 °C. Compound `CN(c1nc(-c2cc3ccccc3[nH]c2=O)cs1)S(=O)(=O)c1cn(C)cn1` [Example 8732, N,1-Dimethyl-N-(4-(2-oxo-1,2-dihydro-3-quinolinyl)-1,3-thiazol-2-yl)-1H-imidazole-4-sulfonamide] came in with a melting point greater than 300 °C. As for `O=c1[nH]c2ccccc2c(O)c1-c1csc(-c2ccncc2)n1` [Example 5, 3-[2-(4-pyridyl)-4-thiazolyl]-4-hydroxy-2(1H)-quinolinone], the melting point was greater than 250 °C. In the case of `Nc1nc(-c2cc3ccccc3[nH]c2=O)cs1` (as salt: hydrobromid) [Example 66, 3-(2-Amino-1,3-thiazol-4-yl)hydroquinolin-2-one], the melting point was greater than 300 °C. As for `O=c1[nH]c2ccccc2cc1-c1csc(Nc2ccccc2F)n1` [Example 78, 3-{2-[(2-Fluorophenyl)amino]-1,3-thiazol-4-yl}hydroquinolin-2-one], the melting point was 277 to 278 °C (dec.). Under `COc1cc2[nH]c(=O)c(-c3csc(-c4ccncc4)n3)c(N)c2cc1OC` [Example 19, 3-[2-(4-pyridyl)-4-thiazolyl]-4-amino-6,7-dimethoxy-2(1H)-quinolinone] stands greater than 250 °C; under `O=C(Nc1nc(-c2cc3ccccc3[nH]c2=O)cs1)c1ccccc1` (as salt: HCl) [Example 71, N-[4-(2-Oxo(3-hydroquinolyl))(1,3-thiazol-2-yl)]benzamide], 309 to 311 °C (dec.).

`O=c1[nH]c2ccccc2cc1-c1csc(NS(=O)(=O)c2ccc(OC(F)(F)F)cc2)n1` [Example 74, 3-[2-({[4-(Trifluoromethoxy)phenyl]sulfonyl}amino)-1,3-thiazol-4-yl]hydroquinolin-2-one] displayed a melting point greater than 300 °C. Consider `CNc1nc(-c2cc3ccccc3[nH]c2=O)cs1` (as salt: hydrobromid) [Example 75, 3-[2-(Methylamino)-1,3-thiazol-4-yl]hydroquinolin-2-one hydrobromide], for which the melting point is 292 to 293 °C.

Take `Nc1c(-c2csc(-c3ccncc3)n2)c(=O)[nH]c2ccccc12` (as salt: salt) [Example 6, 3-[2-(4-Pyridyl)-4-thiazolyl]-4-amino-2(1H)-quinolinone]: the melting point is greater than 250 °C. The compound `CS(=O)(=O)c1ccc(-c2csc(-c3cc4ccccc4[nH]c3=O)n2)cc1` [Example 112, 3-{4-[4-(Methylsulfonyl)phenyl]-1,3-thiazol-2-yl}hydroquinolin-2-one] showed a melting point greater than 300 °C. Compound `O=c1[nH]c2ccccc2cc1-c1csc(NS(=O)(=O)c2ccc(Cl)cc2)n1` [Example 8789, 4-Chloro-N-(4-(2-oxo-1,2-dihydro-3-quinolinyl)-1,3-thiazol-2-yl)benzenesulfonamide] showed a melting point greater than 300 °C. `CN(c1nc(-c2cc3ccccc3[nH]c2=O)cs1)S(=O)(=O)c1ccc(Br)cc1` [Example 8730, 4-Bromo-N-methyl-N-[4-(2-oxo-1,2-dihydro-quinolin-3-yl)-thiazol-2-yl]-benzenesulfonamide] returned a melting point of 280 to 282 °C. `CCNC(=O)c1ccc2cc(-c3csc(N(C)S(=O)(=O)c4ccccc4)n3)c(=O)[nH]c2c1` [Example 8766, 3-[2-(Benzenesulfonyl-methyl-amino)-thiazol-4-yl]-2-oxo-1,2-dihydro-quinoline-7-carboxylic acid ethylamide]: the melting point was greater than 300 °C.

Compound `O=C(Cc1ccccc1)Nc1nc(-c2cc3ccccc3[nH]c2=O)cs1` [Example 72, N-[4-(2-Oxo(3-hydroquinolyl))(1,3-thiazol-2-yl)]-2-phenylacetamide] returned a melting point of 272 to 278 °C.

`O=c1[nH]c2cc3c(cc2cc1-c1csc(-c2cccnc2)n1)OCO3` [Example 9, 3-[2-(3-Pyridyl)-4-thiazolyl]-6,7-(methylenedioxyl)-2(1H)-quinolinone] gave a melting point greater than 220 °C. With `O=C(O)c1cccc2[nH]c(=O)c(-c3csc(-c4ccncc4)n3)cc12` [Example 10, 1,2-Dihydro-2-oxo-3-[2-(4-pyridyl)-4-thiazolyl]-5-quinolinecarboxylic acid], the melting point was greater than 250 °C. In the case of `CN(C(=O)c1ccccc1)c1nc(-c2cc3ccccc3[nH]c2=O)cs1` [Example 76, N-Methyl-N-[4-(2-oxo(3-hydroquinolyl))(1,3-thiazol-2-yl)]benzamide], the melting point is greater than 300 °C. For `O=c1[nH]c2ccccc2cc1-c1csc(Nc2ccncc2)n1` (as salt: hydrobromid) [Example 69, 3-[2-(4-Pyridylamino)-1,3-thiazol-4-yl]hydroquinolin-2-one], the melting point was greater than 300 °C. In the case of `O=c1[nH]c2ccccc2cc1-c1csc(NCc2ccco2)n1` (as salt: hydrobromid) [Example 79, 3-{2-[(2-Furylmethyl)amino]-1,3-thiazol-4-yl}hydroquinolin-2-one hydrobromide], the melting point was 221 to 224 °C (dec.). To `Cc1onc(-c2ccccc2)c1-c1csc(-c2cc3ccccc3[nH]c2=O)n1` [Example 116, 3-[4-(5-Methyl-3-phenylisoxazol-4-yl)-1,3-thiazol-2-yl]hydroquinolin-2-one] belongs 242 to 244 °C. In the case of `COc1ccc(CC(=O)Nc2nc(-c3cc4ccccc4[nH]c3=O)cs2)c(OC)c1` [Example 73, 2-(2,4-Dimethoxyphenyl)-N-[4-(2-oxo(3-hydroquinolyl))(1,3-thiazol-2-yl)]acetamide], the melting point was 295 to 300 °C (dec.).

Turning to `O=c1[nH]c2ccccc2cc1-c1csc(Nc2cccnc2)n1` (as salt: hydrobromid) [Example 68, 3-[2-(3-Pyridylamino)-1,3-thiazol-4-yl]hydroquinolin-2-one], the melting point was greater than 300 °C. `COc1cc2[nH]c(=O)c(-c3csc(-c4cccnc4)n3)c(N)c2cc1OC` [Example 20, 3-[2-(3-Pyridyl)-4-thiazolyl]-4-amino-6,7-dimethoxy-2(1H)-quinolinone] displayed a melting point greater than 250 °C.

Take `CN1CCN(C(=O)c2ccc3cc(-c4csc(N(C)S(=O)(=O)c5ccccc5)n4)c(=O)[nH]c3c2)CC1` [Example 8765, N-Methyl-N-{4-[7-(4-methyl-piperazine-1-carbonyl)-2-oxo-1,2-dihydro-quinolin-3-yl]-thiazol-2-yl}-benzenesulfonamide]: the melting point was 242 to 247 °C. `Nc1nc(-c2c(-c3ccccc3)c3ccccc3[nH]c2=O)cs1` [Example 23, 3-(2-Amino-4-thiazolyl)-4-phenyl-2(1H)-quinolinone] displayed a melting point greater than 220 °C. The compound `COc1cccc(-c2csc(-c3cc4ccccc4[nH]c3=O)n2)c1` [Example 115, 3-[4-(3-Methoxyphenyl)-1,3-thiazol-2-yl]hydroquinolin-2-one] had a melting point of 279 to 282 °C.

Consider `O=c1[nH]c2ccccc2cc1-c1csc(N(Cc2ccccc2)S(=O)(=O)c2ccccc2)n1` [Example 8728, N-Benzyl-N-[4-(2-oxo-1,2-dihydro-quinolin-3-yl)-thiazol-2-yl]-benzenesulfonamide], for which the melting point lay in the range of 228 to 232 °C.

`C=CCN(c1nc(-c2cc3ccccc3[nH]c2=O)cs1)S(=O)(=O)c1ccccc1` [Example 8729, N-Allyl-N-[4-(2-oxo-1,2-dihydro-quinolin-3-yl)-thiazol-2-yl]-benzenesulfonamide] displayed a melting point of 214 to 216 °C.

`Nc1c(-c2csc(-c3ccncc3)n2)c(=O)[nH]c2ccc(N3CCCCC3)cc12` [Example 7, 3-[2-(4-Pyridyl)-4-thiazolyl]-4-amino-6-(1-piperidinyl)-2(1H) -quinolinone] registered a melting point of 199 to 202 °C.

Take `O=c1[nH]c2cc3c(cc2cc1-c1csc(-c2ccncc2)n1)OCO3` [Example 18, 7-(2-(4-Pyridinyl)-1,3-thiazol-4-yl)[1,3]dioxolo[4,5-g]quinolin-6(5H)-one]: the melting point is 167 to 169 °C. In turn, `O=c1[nH]c2ccccc2cc1-c1csc(-c2cccnc2)n1` [Example 2, 3-[2-(3-Pyridyl)-4-thiazolyl]-2(1H)-quinolinone] registered a melting point of 230 to 232 °C. Take `O=c1[nH]c2ccccc2cc1-c1csc(Nc2ccccn2)n1` (as salt: hydrobromid) [Example 67, 3-[2-(2-pyridylamino)-1,3-thiazol-4-yl]hydroquinolin-2-one]: the melting point is 307 to 312 °C (dec.). `O=c1[nH]c2ccccc2cc1-c1csc(NS(=O)(=O)c2ccccc2)n1` [Example 70, 3-{2-[(Phenylsulfonyl)amino]-1,3-thiazol-4-yl}hydroquinolin-2-one] showed a melting point greater than 300 °C.
